The results in this text go back to patent US11866431B2, “Bicyclic compounds” (Vivace Therapeutics, Inc., priority 2018, dated 2024).

Usually IC50 stands for the concentration that inhibits the measured activity by half.

The subject of the test is 8XTBD luciferase reporter (YAP reporter) in HEK293T cells. Nature of the test: YAP Reporter Assay. It is filed as cell-based. Conditions: Homo sapiens, HEK-293T; HEK293T cells stably transfected with 8XTBD luciferase reporter and pRLTK; 24-hr incubation; top concentration 3 μM; read-out: Firefly Luciferase IC50. The gist of the method: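 Dual-luciferase read-out after 24 h compound exposure at 37° C, 5% CO2; IC50 and maximum inhibition given separately for 8XTBD-firefly and TK-renilla signals. Stable HEK293T reporter cells, 3×10^3/well, received 10-point 1:3 series starting 3 μM final, in quadruplicate.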
In general terms: A reporter such as luciferase makes a cellular process visible.
As for `CC(C)NC(=O)c1ccc2c(-c3ccc(C(F)(F)F)cc3)cc(N)cc2c1` [Compound 44, 7-amino-N-isopropyl-5-[4-(trifluoromethyl)phenyl]naphthalene-2-carboxamide], the IC50 was less than 100 nM. Turning to `CCN1CC([C@H](C)NC(=O)c2ccc3c(-c4ccc(C(F)(F)F)cc4)cccc3c2)C1` [Compound 149, N-[(1S)-1-(1-Ethylazetidin-3-yl)ethyl]-5-[4-(trifluoromethyl)phenyl]naphthalene-2-carboxamide], the half-maximal inhibitory concentration (IC50) is 100 to 1000 nM.

For the compound `O=C(N[C@H](CO)c1ccccn1)c1ccc2c(-c3ccc(C(F)(F)F)cc3)cccc2c1` [Compound 162, N-[(1S)-2-hydroxy-1-(2-pyridyl)ethyl]-5-[4-(trifluoromethyl)phenyl]naphthalene-2-carboxamide], the concentration for half-maximal inhibition (IC50) lay in the range of 1000 to 3000 nM. The value for `O=C(NC1(c2ccccc2)COC1)c1ccc2c(-c3ccc(C(F)(F)F)cc3)cccc2c1` [Compound 288, N-(3-phenyloxetan-3-yl)-5-(4-(trifluoromethyl)phenyl)-2-naphthamide] was less than 100 nM; that for `C[C@@H](NC(=O)c1ccc2c(-c3ccc(C(F)(F)F)cc3)cccc2c1)c1cccc2cn[nH]c12` [Compound 182, N-[(1R)-1-(1H-indazol-7-yl)ethyl]-5-[4-(trifluoromethyl)phenyl]naphthalene-2-carboxamide] was less than 100 nM. For the compound `C[C@H](CN)NC(=O)c1ccc2c(-c3ccc(C(F)(F)F)cc3)cccc2c1` [Compound 60, (R)—N-(1-aminopropan-2-yl)-5-(4-(trifluoromethyl)phenyl)-2-naphthamide], the IC50 was less than 100 nM. Then `COC(=O)c1ccc2c(-c3ccc(C(F)(F)F)cc3)cn(C)c(=O)c2c1` [Compound 15, Methyl 2-methyl-1-oxo-4-[4-(trifluoromethyl)phenyl]isoquinoline-7-carboxylate], with 100 to 1000 nM; and `COC[C@H](C)NC(=O)c1ccc2c(-c3ccc(C(F)(F)F)cc3)cccc2c1` [Compound 89, (S)—N-(1-methoxypropan-2-yl)-5-(4-(trifluoromethyl)phenyl)-2-naphthamide], with less than 100 nM. In the case of `CC(=O)Nc1ccc(-c2ccc(C(F)(F)F)cc2)c2ccc(C(=O)NC(C)C)cc12` [Compound 17, 8-acetamido-N-isopropyl-5-(4-(trifluoromethyl)phenyl)-2-naphthamide], the half-inhibitory concentration (IC50) was less than 100 nM.

With `C[C@@H](NC(=O)c1ccc2c(-c3ccc(C(F)(F)F)cc3)cccc2c1)c1cccc(N)n1` [Compound 129, (R)—N-(1-(6-aminopyridin-2-yl)ethyl)-5-(4-(trifluoromethyl)phenyl)-2-naphthamide], the IC50 is less than 100 nM.

With `CC(C)NC(=O)c1ccc2c(-c3ccc(C(F)(F)F)cc3)cn(C)c(=O)c2c1` [Compound 26, N-isopropyl-2-methyl-1-oxo-4-(4-(trifluoromethyl)phenyl)-1,2-dihydroisoquinoline-7-carboxamide], the IC50 was less than 100 nM.

As for `CS(=O)(=O)/C=C/CCNC(=O)c1ccc2c(-c3ccc(C(F)(F)F)cc3)cccc2c1` [Compound 311, (E)-N-(4-(Methylsulfonyl)but-3-en-1-yl)-5-(4-(trifluoromethyl)phenyl)-2-naphthamide], the IC50 was less than 100 nM.

Take `CC(C)NC(=O)c1ccc2c(-c3ccc(C(F)(F)F)cc3)cc(Cl)c(N)c2c1` [Compound 33, 8-amino-7-chloro-N-isopropyl-5-(4-(trifluoromethyl)phenyl)-2-naphthamide]: the IC50 was less than 100 nM. Then `O=C(NCCCCCl)c1ccc2c(-c3ccc(C(F)(F)F)cc3)cccc2c1` [Compound 249, N-(4-chlorobutyl)-5-(4-(trifluoromethyl)phenyl)-2-naphthamide], with 100 to 1000 nM. Then `O=C(NCc1ccnc(COc2c(F)cccc2F)n1)c1ccc2c(-c3ccc(C(F)(F)F)cc3)cccc2c1` [Compound 172, N-((2-((2,6-difluorophenoxy)methyl)pyrimidin-4-yl)methyl)-5-(4-(trifluoromethyl)phenyl)-2-naphthamide], with 1000 to 3000 nM; and `O=C(NC(CCO)CCO)c1cnc2c(-c3ccc(C(F)(F)F)cc3)cccc2c1` [Compound 160, N-(1,5-dihydroxypentan-3-yl)-8-(4-(trifluoromethyl)phenyl)quinoline-3-carboxamide], with 1000 to 3000 nM. Then `CCN1CC([C@@H](C)NC(=O)c2cnc3c(-c4ccc(C(F)(F)F)cc4)cccc3c2)C1` [Compound 150, N-[(1R)-1-(1-Ethylazetidin-3-yl)ethyl]-8-[4-(trifluoromethyl)phenyl]quinoline-3-carboxamide], with 1000 to 3000 nM; and `C[C@H](NC(=O)c1ccc2c(-c3ccc(C(F)(F)F)cc3)cccc2c1)C1(O)CNC1` [Compound 155, (S)—N-(1-(3-hydroxyazetidin-3-yl)ethyl)-5-(4-(trifluoromethyl)phenyl)-2-naphthamide], with 100 to 1000 nM; and `C[C@@H](NC(=O)c1ccc2c(-c3ccc(C(F)(F)F)cc3)cccc2c1)C1CN(CC(F)F)C1` [Compound 137, (R)—N-(1-(1-(2,2-difluoroethyl)azetidin-3-yl)ethyl)-5-(4-(trifluoromethyl)phenyl)-2-naphthamide], with 100 to 1000 nM. `C[C@H](NC(=O)c1ccc2c(-c3ccc(C(F)(F)F)cc3)cccc2c1)c1nccn1C` [Compound 253, (S)—N-(1-(1-methyl-1H-imidazol-2-yl)ethyl)-5-(4-(trifluoromethyl)phenyl)-2-naphthamide]: the IC50 lay in the range of 1000 to 3000 nM. Consider `O=C(NC(CO)CO)c1ccc2c(-c3ccc(C(F)(F)F)cc3)cccc2c1` [Compound 56, N-(1,3-dihydroxypropan-2-yl)-5-(4-(trifluoromethyl)phenyl)-2-naphthamide], for which the IC50 was less than 100 nM. Then `COc1cc(-c2ccc(C(F)(F)F)cc2)c2ncc(C(=O)N[C@H](C)c3ccccn3)cc2c1` [Compound 106, 6-methoxy-N-[(1R)-1-(2-pyridyl)ethyl]-8-[4-(trifluoromethyl)phenyl]quinoline-3-carboxamide], with 100 to 1000 nM; and `O=C(O)c1ccc2c(-c3ccc(C(F)(F)F)nc3)cccc2c1` [Compound 331, 5-(6-(trifluoromethyl)pyridin-3-yl)-2-naphthoic Acid], with 100 to 1000 nM.

Take `O=C(O)/C=C/CCNC(=O)c1ccc2c(-c3ccc(C(F)(F)F)cc3)cccc2c1` [Compound 209, (E)-5-[[5-[4-(trifluoromethyl)phenyl]naphthalene-2-carbonyl]amino]pent-2-enoic Acid]: the IC50 was in the range of 1000 to 3000 nM.

As for `C[C@H](NC(=O)c1ccc2c(-c3ccc(C(F)(F)F)cc3)cccc2c1)c1cccc2cn[nH]c12` [Compound 183, N-[(1S)-1-(1H-indazol-7-yl)ethyl]-5-[4-(trifluoromethyl)phenyl]naphthalene-2-carboxamide], the IC50 was 1000 to 3000 nM. In the case of `N#Cc1cccc(CNC(=O)c2ccc3c(-c4ccc(C(F)(F)F)cc4)cccc3c2)n1` [Compound 191, N-((6-cyanopyridin-2-yl)methyl)-5-(4-(trifluoromethyl)phenyl)-2-naphthamide], the IC50 lay within 100 to 1000 nM. Regarding `CS(=O)(=O)NC(=O)c1cnc2c(-c3ccc(C(F)(F)F)cc3)cc(OC(F)(F)F)cc2c1` [Compound 123, N-(methylsulfonyl)-6-(trifluoromethoxy)-8-(4-(trifluoromethyl)phenyl)quinoline-3-carboxamide], the half-inhibitory concentration (IC50) fell in the range of 1000 to 3000 nM. The value for `CC(=O)Nc1cc(-c2ccc(C(F)(F)F)cc2)c2ccc(C(=O)NC(C)C)cc2c1` [Compound 48, 7-acetamido-N-isopropyl-5-(4-(trifluoromethyl)phenyl)-2-naphthamide] was 100 to 1000 nM; that for `CCc1cc(-c2ccc(C(F)(F)F)cc2)c2ccc(C(=O)NC(C)C)cc2c1` [Compound 47, 7-ethyl-N-isopropyl-5-(4-(trifluoromethyl)phenyl)-2-naphthamide] was less than 100 nM; that for `COCC(C)(C)NC(=O)c1ccc2c(-c3ccc(C(F)(F)F)cc3)cccc2c1` [Compound 212, N-(1-methoxy-2-methylpropan-2-yl)-5-(4-(trifluoromethyl)phenyl)-2-naphthamide] was less than 100 nM. In the case of `C[C@@H](NC(=O)c1ccc2c(-c3ccc(C(F)(F)F)cc3)cccc2c1)C(N)=O` [Compound 258, (R)—N-(1-amino-1-oxopropan-2-yl)-5-(4-(trifluoromethyl)phenyl)-2-naphthamide], the half-inhibitory concentration (IC50) was in the range of 100 to 1000 nM. With `CC(C)NC(=O)c1cnc2c(-c3ccc(C(F)(F)F)cc3)cc(OC(F)(F)F)cc2c1` [Compound 104, N-isopropyl-6-(trifluoromethoxy)-8-[4-(trifluoromethyl)phenyl]quinoline-3-carboxamide], the IC50 was less than 100 nM. The value for `Cc1ccc(-c2ccc(C(F)(F)F)cc2)c2ccc(C(=O)NC(C)C)cc12` [Compound 19, N-isopropyl-8-methyl-5-[4-(trifluoromethyl)phenyl]naphthalene-2-carboxamide] was less than 100 nM; that for `C[C@@H](NC(=O)c1ccc2c(-c3ccc(C(F)(F)F)cc3)cccc2c1)c1c[nH]cn1` [Compound 277, (R)—N-(1-(1H-imidazol-4-yl)ethyl)-5-(4-(trifluoromethyl)phenyl)-2-naphthamide] was 100 to 1000 nM; that for `N#Cc1nccc(CNC(=O)c2ccc3c(-c4ccc(C(F)(F)F)cc4)cccc3c2)n1` [Compound 179, N-((2-cyanopyrimidin-4-yl)methyl)-5-(4-(trifluoromethyl)phenyl)-2-naphthamide] was less than 100 nM. Regarding `C[C@H](CO)NC(=O)c1ccc2c(-c3ccc(C(F)(F)F)cc3)cccc2n1` [Compound 247, (R)—N-(1-Hydroxypropan-2-yl)-5-(4-(trifluoromethyl)phenyl)quinoline-2-carboxamide], the half-maximal inhibitory concentration (IC50) fell in the range of 100 to 1000 nM. Then `COC(=O)c1ccc2c(-c3ccc(C(F)(F)F)cc3)cncc2c1` [Compound 24, Methyl 4-[4-(trifluoromethyl)phenyl]isoquinoline-7-carboxylate], with less than 100 nM.
